The values that follow come from patent US12612384B2, “Heterocyclic CYP4A inhibitor compounds and compositions thereof” (MBD CO., LTD., priority 2021, dated 2026).

One assay deals with T1, CYP4A (Homo sapiens, UniProt Q02928).
T1 construct: purchased; host or cells: bacterial membranes ('bactosome')
T1 sequence (Q02928 5-519): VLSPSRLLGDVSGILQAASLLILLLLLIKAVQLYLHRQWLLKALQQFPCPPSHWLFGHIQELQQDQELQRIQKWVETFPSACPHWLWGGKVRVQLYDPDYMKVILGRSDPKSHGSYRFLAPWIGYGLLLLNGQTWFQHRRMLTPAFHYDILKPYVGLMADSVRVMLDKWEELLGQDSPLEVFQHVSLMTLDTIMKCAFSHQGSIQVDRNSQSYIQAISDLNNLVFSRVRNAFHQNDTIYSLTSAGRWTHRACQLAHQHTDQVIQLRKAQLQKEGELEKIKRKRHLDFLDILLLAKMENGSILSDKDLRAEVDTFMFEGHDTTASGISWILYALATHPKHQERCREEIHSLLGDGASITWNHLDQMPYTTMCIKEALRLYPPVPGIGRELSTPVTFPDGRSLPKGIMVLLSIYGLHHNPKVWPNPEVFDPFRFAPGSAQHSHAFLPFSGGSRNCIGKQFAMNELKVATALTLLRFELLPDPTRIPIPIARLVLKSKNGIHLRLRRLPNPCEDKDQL
The experiment in a line: CYP4A enzyme assay (luminescence, Luciferin-ME). It counts as biochemical. As to conditions: Compound concentration 5 μM; 50%-70%; read-out: % Inhibition 50%-70%. The essentials: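 Compounds (5 μM) were preincubated 15 min at room temperature with CYP4A bactosomes in 100 mM KPO4, 0.1% BSA, 1 mM DTT. Reaction ran 30 min at room temperature after adding 5 mM Luciferin-ME and NADPH regeneration system. Luminescence after 15 min with detection reagent; inhibition judged by comparing well signals.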
With `O=C(C1CCCN(S(=O)(=O)c2ccncc2)C1)N1CCN(c2cc(C(F)(F)F)nc3ccccc23)CC1` (centres unmarked) [Example 128, (1-(pyridin-4-ylsulfonyl)piperidin-3-yl)(4-(2-(trifluoromethyl)quinolin-4-yl)piperazin-1-yl)methanone], the inhibition (as a rule, how much of the control response was suppressed) at 5 µM lay in the range of 50 to 70%.
The same measure, in the same setting: with `Cc1cc(N2CCN(C(=O)C3CCCN(S(=O)(=O)c4cccnc4)C3)CC2)c2ccccc2n1` (centres unmarked) [Example 125, (4-(2-methylquinolin-4-yl)piperazin-1-yl)(1-(pyridin-3-ylsulfonyl)piperidin-3-yl)methanone] the figure was 50 to 70%; with `Cc1nc(N2CCN(C(=O)C3CCCN(S(=O)(=O)c4ccc(N(C)C)cc4)C3)CC2)c2ccccc2n1` (centres unmarked) [Example 82, (1-(4-(dimethylamino)phenylsulfonyl)piperidin-3-yl)(4-(2-methylquinazolin-4-yl)piperazin-1-yl)methanone], 50 to 70%.
Still for that read-out and setting: with `COC(=O)CCS(=O)(=O)N1CCCC(C(=O)N2CCN(c3ccnc4ccccc34)CC2)C1` (centres unmarked) [Example 132, methyl 3-((3-(4-(quinolin-4-yl)piperazine-1-carbonyl)piperidin-1-yl)sulfonyl)propanoate] the figure was 50 to 70%.
Same read-out and setting: then `Cc1nc(N2CCN(C(=O)C3CCCN(S(=O)(=O)c4ccc(F)cc4)C3)CC2)c2ccccc2n1` (centres unmarked) [Example 81, (1-(4-fluorophenylsulfonyl)piperidin-3-yl)(4-(2-methylquinazolin-4-yl)piperazin-1-yl)methanone], with 50 to 70%; and `Cc1cc(N2CCN(C(=O)C3CCCN(C(=O)c4ccccc4)C3)CC2)c2ccccc2n1` (centres unmarked) [Example 102, (1-benzoylpiperidin-3-yl)(4-(2-methylquinolin-4-yl)piperazin-1-yl)methanone], with 50 to 70%; and `COc1ccc2c(N3CCN(C(=O)C4CCCN(C(=O)c5ccccc5)C4)CC3)ccnc2c1` (centres unmarked) [Example 91, (1-benzoylpiperidin-3-yl)(4-(7-methoxyquinolin-4-yl)piperazin-1-yl)methanone], with 50 to 70%.
`O=C(C1CCN(Cc2ccc([N+](=O)[O-])cc2)C1)N1CCN(c2ccnc3ccccc23)CC1` (centres unmarked) [Example 153, (1-(4-nitrobenzyl)pyrrolidin-3-yl)(4-(quinolin-4-yl)piperazin-1-yl)methanone]: the inhibition at 5 µM was in the range of 50 to 70%.

Still in this assay, the particulars now being: Compound concentration 5 μM; 70%-90%; read-out: % Inhibition 70%-90%.
On to `O=C(C1CCN(Cc2ccc([N+](=O)[O-])cc2)C1)N1CCN(c2ccnc3cc(F)ccc23)CC1` (centres unmarked) [Example 53, (4-(7-fluoroquinolin-4-yl)piperazin-1-yl)(1-(4-nitrobenzyl)pyrrolidin-3-yl)methanone], for which the inhibition at 5 µM lay within 70 to 90%.
Regarding `O=C(C1CCN(S(=O)(=O)c2ccc(Br)cc2)CC1)N1CCN(c2ccnc3ccccc23)CC1` [Example 63, (1-((4-bromophenyl)sulfonyl)piperidin-4-yl)(4-(quinolin-4-yl)piperazin-1-yl)methanone], the inhibition at 5 µM lay within 70 to 90%.
On to `COc1ccc2c(N3CCN(C(=O)C4CCCN(C(=O)c5ccc(F)cc5)C4)CC3)ccnc2c1` (centres unmarked) [Example 90, (1-(4-fluorobenzoyl)piperidin-3-yl)(4-(7-methoxyquinolin-4-yl)piperazin-1-yl)methanone], for which the inhibition at 5 µM was 70 to 90%.
Same read-out and setting: then `COc1ccc2c(N3CCN(C(=O)C4CCCN(C(=O)c5ccncc5)C4)CC3)ccnc2c1` (centres unmarked) [Example 93, (4-(7-methoxyquinolin-4-yl)piperazin-1-yl)(1-(pyridine-4-ylcarbonyl)piperidin-3-yl)methanone], with 70 to 90%.

The assay is the same for the next values; noted with them: Compound concentration 5 μM; Greater than 90%; read-out: % Inhibition Greater than 90%.
`O=C([C@H]1CCN(S(=O)(=O)c2ncn[nH]2)C1)N1CCN(c2ccnc3cc(O)ccc23)CC1` [Example 164, (S)-(1-((1H-1,2,4-triazol-5-yl)sulfonyl)pyrrolidin-3-yl)(4-(7-hydroxyquinolin-4-yl)piperazin-1-yl)methanone]: the inhibition at 5 µM was more than 90%.
As for `O=C(C1CCN(S(=O)(=O)c2ccc(-c3cccnc3)nc2)C1)N1CCN(c2ccnc3ccccc23)CC1` (centres unmarked) [Example 29, (1-([2,3′-bipyridin]-5-ylsulfonyl)pyrrolidin-3-yl)(4-(quinolin-4-yl)piperazin-1-yl)methanone], the inhibition at 5 µM is more than 90%.
For the compound `O=C([C@@H]1CCN(S(=O)(=O)c2ncn[nH]2)C1)N1CCN(c2ccnc3cc(F)ccc23)CC1` [Example 134, (R)-(1-((1H-1,2,4-triazol-5-yl)sulfonyl)pyrrolidin-3-yl)(4-(7-fluoroquinolin-4-yl)piperazin-1-yl)methanone], the inhibition at 5 µM was more than 90%.
On the same count and under the same terms, then `O=C([C@H]1CCN(S(=O)(=O)c2ncc[nH]2)C1)N1CCN(c2ccnc3ccc(F)cc23)CC1` [Example 159, (S)-(1-((1H-imidazol-2-yl)sulfonyl)pyrrolidin-3-yl)(4-(6-fluoroquinolin-4-yl)piperazin-1-yl)methanone], with more than 90%.
Regarding `CC(=O)Nc1nc(C)c(S(=O)(=O)N2CCC(C(=O)N3CCN(c4ccnc5ccccc45)CC3)C2)s1` (centres unmarked) [Example 47, N-(4-methyl-5-((3-(4-(quinolin-4-yl)piperazine-1-carbonyl)pyrrolidin-1-yl)sulfonyl)thiazol-2-yl)acetamide], the inhibition at 5 µM was more than 90%.
On to `O=C(C1CCN(S(=O)(=O)c2ccc(-c3cnco3)cc2)C1)N1CCN(c2ccnc3cc(F)ccc23)CC1` (centres unmarked) [Example 15, (4-(7-fluoroquinolin-4-yl)piperazin-1-yl)(1-((4-(oxazol-5-yl)phenyl)sulfonyl)pyrrolidin-3-yl)methanone], for which the inhibition at 5 µM is more than 90%.
On the same count and under the same terms, then `O=C(C1CCN(S(=O)(=O)c2ccc(-c3ccncc3)nc2)C1)N1CCN(c2ccnc3ccccc23)CC1` (centres unmarked) [Example 26, (1-([2,4′-bipyridin]-5-ylsulfonyl)pyrrolidin-3-yl)(4-(quinolin-4-yl)piperazin-1-yl)methanone], with more than 90%.
The same measure, in the same setting: with `Cn1ccnc1S(=O)(=O)N1CCCC(C(=O)N2CCN(c3ccnc4ccccc34)CC2)C1` (centres unmarked) [Example 120, (1-(1-methyl-1H-imidazol-2-ylsulfonyl)piperidin-3-yl)(4-(quinolin-4-yl)piperazin-1-yl)methanone] the figure was more than 90%; with `Cc1nn(C)c(C)c1S(=O)(=O)N1CCC(C(=O)N2CCN(c3ccnc4cc(F)ccc34)CC2)C1` (centres unmarked) [Example 12, (4-(7-fluoroquinolin-4-yl)piperazin-1-yl)(1-((1,3,5-trimethyl-1H-pyrazol-4-yl)sulfonyl)pyrrolidin-3-yl)methanone], more than 90%.
Take `O=C(C1CCN(S(=O)(=O)c2ccc(-c3ccccc3)nc2)C1)N1CCN(c2ccnc3ccccc23)CC1` (centres unmarked) [Example 25, (1-((6-phenylpyridin-3-yl)sulfonyl)pyrrolidin-3-yl)(4-(quinolin-4-yl)piperazin-1-yl)methanone]: the inhibition at 5 µM was more than 90%.
Same read-out and setting: then `O=C(C1CCN(S(=O)(=O)c2ncn[nH]2)C1)N1CCN(c2ccnc3cc(F)ccc23)CC1` (centres unmarked) [Example 10, (1-((1H-1,2,4-triazol-5-yl)sulfonyl)pyrrolidin-3-yl)(4-(7-fluoroquinolin-4-yl)piperazin-1-yl)methanone], with more than 90%.
Still for that read-out and setting: with `O=C(C1CCN(S(=O)(=O)c2ccc(-c3ccc(O)cc3)nc2)C1)N1CCN(c2ccnc3ccccc23)CC1` (centres unmarked) [Example 28, (1-((6-(4-hydroxyphenyl)pyridin-3-yl)sulfonyl)pyrrolidin-3-yl)(4-(quinolin-4-yl)piperazin-1-yl)methanone] the figure was more than 90%; with `Cn1cncc1S(=O)(=O)N1CCC(C(=O)N2CCN(c3ccnc4cc(F)ccc34)CC2)C1` (centres unmarked) [Example 14, (4-(7-fluoroquinolin-4-yl)piperazin-1-yl)(1-((1-methyl-1H-imidazol-5-yl)sulfonyl)pyrrolidin-3-yl)methanone], more than 90%.
On the same count and under the same terms, with `COc1ccc2c(N3CCN(C(=O)[C@H]4CCN(S(=O)(=O)c5ncn[nH]5)C4)CC3)ccnc2c1` [Example 165, (S)-(1-((1H-1,2,4-triazol-5-yl)sulfonyl)pyrrolidin-3-yl)(4-(7-methoxyquinolin-4-yl)piperazin-1-yl)methanone] the figure was more than 90%.
`O=C([C@H]1CCN(S(=O)(=O)c2ncn[nH]2)C1)N1CCN(c2ccnc3cc(F)ccc23)CC1` [Example 19, (S)-(1-((1H-1,2,4-triazol-5-yl)sulfonyl)pyrrolidin-3-yl)(4-(7-fluoroquinolin-4-yl)piperazin-1-yl)methanone]: the inhibition at 5 µM is more than 90%.
The same measure, in the same setting: with `O=C(C1CN(S(=O)(=O)c2cccc([N+](=O)[O-])c2)C1)N1CCN(c2ccnc3cc(F)ccc23)CC1` [Example 71, (4-(7-fluoroquinolin-4-yl)piperazin-1-yl)(1-((3-nitrophenyl)sulfonyl)azetidin-3-yl)methanone] the figure was more than 90%.

The same assay, now with this note: Compound concentration 5 μM; Less than 50%; read-out: % Inhibition Less than 50%.
In the case of `O=C(C1CCCN(C(=O)C2CCCCC2)C1)N1CCN(c2cc(C(F)(F)F)nc3ccccc23)CC1` (centres unmarked) [Example 97, (1-(cyclohexylcarbonyl)piperidin-3-yl)(4-(2-(trifluoromethyl)quinolin-4-yl)piperazin-1-yl)methanone], the inhibition at 5 µM is less than 50%.
